19 compounds from US6872748B2 (priority 2001, dated 2005) can be followed below.

Where two headings read alike, the source gives them in different places.

As a reminder, the Ki is the dissociation constant of the complex between target and ligand, obtained from inhibition or displacement. The term EC50 denotes the concentration at which the effect is half-maximal. Low values mean a more potent agent, high ones a less potent agent.

Data set [1] has as its target T1, VR1 (Rattus norvegicus, UniProt O35433).
T1 construct: expressed in transfected cells; host or cells: Chinese Hamster Ovary cells (CHO, ATCC CCL-61), Tet-off inducible expression
Description: biochemical. Type of data set: binding.

For another data set, the system named is Male Sprague-Dawley rat. To be noted: in vivo.
For the next data set, the system named is Male ICR mice. Description: animal or person. It is filed as in vivo. As to conditions: for ED50: Mus musculus, ip, read-out: Writhing Test (ED50 = μG/KG); for Relative effect (fold stronger than capsaicin): mouse, in vivo. For orientation: In writhing tests, fewer writhes than in controls are read as antinociception.
Data set [2] deals with T1, VR1. Description: cell-based.
Where [3] appears, read: read-out: Binding Affinity (Ki = nM).

T1 sequence (O35433 whole entry): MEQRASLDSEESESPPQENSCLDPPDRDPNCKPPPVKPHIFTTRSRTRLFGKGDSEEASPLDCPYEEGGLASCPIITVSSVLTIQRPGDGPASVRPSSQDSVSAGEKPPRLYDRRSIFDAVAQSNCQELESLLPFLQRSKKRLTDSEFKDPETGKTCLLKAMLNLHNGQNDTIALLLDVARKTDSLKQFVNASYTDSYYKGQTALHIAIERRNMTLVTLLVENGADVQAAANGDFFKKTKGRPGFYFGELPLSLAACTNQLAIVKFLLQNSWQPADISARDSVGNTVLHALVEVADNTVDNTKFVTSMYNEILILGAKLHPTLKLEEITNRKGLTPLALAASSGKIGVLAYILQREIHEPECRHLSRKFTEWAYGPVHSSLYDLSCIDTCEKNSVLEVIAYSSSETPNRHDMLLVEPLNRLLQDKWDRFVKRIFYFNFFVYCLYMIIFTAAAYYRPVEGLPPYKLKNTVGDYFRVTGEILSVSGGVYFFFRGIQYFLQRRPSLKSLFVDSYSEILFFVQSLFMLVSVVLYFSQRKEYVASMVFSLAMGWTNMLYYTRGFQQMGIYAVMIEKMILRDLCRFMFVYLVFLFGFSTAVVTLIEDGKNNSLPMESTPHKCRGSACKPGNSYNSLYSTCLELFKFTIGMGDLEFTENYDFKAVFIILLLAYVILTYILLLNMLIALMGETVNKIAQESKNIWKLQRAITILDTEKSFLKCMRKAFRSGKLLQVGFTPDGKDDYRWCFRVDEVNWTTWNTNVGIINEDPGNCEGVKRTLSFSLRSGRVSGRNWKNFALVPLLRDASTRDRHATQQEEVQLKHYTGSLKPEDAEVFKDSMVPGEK

In turn, `COc1cc(CNC(=S)OCC(COC(=O)C(C)(C)C)Cc2ccc(C)c(C)c2)ccc1O` (stereo not shown) [Compound 125, N-(4-hydroxy-3-methoxybenzyl)-O-[2-(3,4-Dimethylbenzyl)-3-(pivaloyloxy)propyl]thiocarbamate] had a Ki at VR1 [1] of 143 nM.

Consider `COc1cc(CNC(=S)NC(COC(=O)C(C)(C)C)Cc2ccc(C(C)(C)C)cc2)ccc1OCCN` (stereo not shown) [Compound 75, N-[3-(4-tert-Butylphenyl)-1-pivaloyloxy-2-propyl]-N′-[4-(2-aminoethoxy)-3-methoxybenzyl]thiourea], for which, in the data set with Male Sprague-Dawley rat, the “MPP (moderate pain-producing potency)” value was determined as 47 µg/mL and the “RPP (relative pain-producing potency)” value is about 3.4. Further, the Ki on VR1 [1] worked out at 341 nM. In the data set on Male ICR mice, the ED50 came out at 0.00061 µg/kg.

For `COc1cc(CNC(=S)NC(CCc2ccc(C)c(C)c2)COC(=O)C(C)(C)C)ccc1O` (stereo not shown) [Compound 64, N-[4-(3,4-Dimethylphenyl)-1-pivaloyloxy-2-butyl]-N′-[4-hydroxy-3-methoxybenzyl]thiourea], the Ki on VR1 [1] worked out at 244 nM.

Compound `COc1cc(CNC(=S)NCC(CCc2ccc(C)c(C)c2)COC(=O)C(C)(C)C)ccc1O` (stereo not shown) [Compound 28, N-[4-(3,4-Dimethylphenyl)-2-(pivaloyloxymethyl)butyl]-N′-[4-hydroxy-3-methoxybenzyl]thiourea] had a Ki at VR1 [1] of 24.9 nM.

Consider `COc1cc(CC(=O)NCC(COC(=O)C(C)(C)C)Cc2ccc(C)c(C)c2)ccc1O` (stereo not shown) [LJO-198, reference compound], for which the Ki on VR1 [1] stood at 157 nM. Further, in the data set with Male ICR mice, the ED50 stood at 0.0235 µg/kg and the “Relative effect (fold stronger than capsaicin)” value was found to be 57.

Regarding `COc1cc(CNC(=S)NC(COC(=O)C(C)(C)C)Cc2ccc(C)c(C)c2)ccc1OCCN` (stereo not shown) [Compound 74, N-[3-(3,4-Dimethylphenyl)-1-pivaloyloxy-2-propyl]-N′-[4-(2-aminoethoxy)-3-methoxybenzyl]thiourea], in the data set on Male Sprague-Dawley rat, the “MPP (moderate pain-producing potency)” value is 18.02 µg/mL. Further, in the data set on Male ICR mice, the ED50 was determined as 3e-05 µg/kg.

On VR1 [1], `COc1cc(CNC(=S)OCc2ccc(C(C)(C)C)cc2)ccc1O` [Compound 132, O-(4-tert-Butylbenzyl)-N-(4-hydroxy-3-methoxybenzyl) thiocarbamate] returned a Ki of 1960 nM.

As for `COc1cc(CC(=O)NCC(COC(=O)C(C)(C)C)Cc2ccc(C)c(C)c2)ccc1OCCN` (stereo not shown) [MSK-195, reference compound], in the data set with Male Sprague-Dawley rat, the “MPP (moderate pain-producing potency)” value worked out at 14.9 µg/mL and the “RPP (relative pain-producing potency)” value is listed as 11. The same compound gave an inhibitory constant (Ki) on VR1 [1] of 603 nM. In the data set on Male ICR mice, the ED50 was found to be 1.17 µg/kg and the “Relative effect (fold stronger than capsaicin)” value was found to be 1.1.

Consider `COc1cc(CNC(=O)CCCC/C=C/C(C)C)ccc1O` [Capsaicin, 8-methyl-N-vanillyl-6-nonenamides, reference compound], for which the ED50 in the data set on Male ICR mice was 1.34 µg/kg.

In the case of `COc1cc(CNC(=S)NC(COC(=O)C(C)(C)C)Cc2ccc(C(C)(C)C)cc2)ccc1O` (stereo not shown) [Compound 63, N-[3-(4-tert-Butylphenyl)-1-pivaloyloxy-2-propyl]-N′-[4-hydroxy-3-methoxybenzyl]thiourea], the affinity at VR1 [1] corresponds to a Ki of 34.6 nM. In addition, the ED50 in the data set with Male ICR mice came out at 0.00036 µg/kg.

On to `COc1cc(CNC(=S)NC(COC(=O)C(C)(C)C)Cc2ccc(C)c(C)c2)ccc1O` (stereo not shown) [Compound 62, N-[3-(3,4-Dimethylphenyl)-1-pivaloyloxy-2-propyl]-N′-[4-hydroxy-3-methoxybenzyl]thiourea], for which, in the data set with Male Sprague-Dawley rat, the “MPP (moderate pain-producing potency)” value came to 11.57 µg/mL and the “RPP (relative pain-producing potency)” value was 14. Affinity at VR1 [1] was put at a Ki of 45.3 nM. In the data set with Male ICR mice, the ED50 amounted to 0.006 µg/kg and the “Relative effect (fold stronger than capsaicin)” value turned out to be 224.

For `COc1cc(CNC(=S)NCC(CCc2ccc(C(C)(C)C)cc2)COC(=O)C(C)(C)C)ccc1O` (stereo not shown) [Compound 29, N-[4-tert-Butylphenyl-2-(pivaloyloxymethyl)butyl]-N′-[4-hydroxy-3-methoxybenzyl]thiourea], the Ki on VR1 [1] stood at 18.3 nM.

On VR1 [1], `COc1cc(CC(=O)NCC(CCc2ccc(C(C)(C)C)cc2)COC(=O)C(C)(C)C)ccc1O` (stereo not shown) [Compound 35, N-[4-(4-tert-Butylphenyl)-2-(pivaloyloxymethyl)butyl]-2-[4-hydroxy-3-methoxyphenyl]acetamide] registered a Ki of 36.3 nM.

For `COc1cc(CNC(=S)NCC(COC(=O)C(C)(C)C)Cc2ccc(C)c(C)c2)ccc1O` (stereo not shown) [JYL-79, reference compound], in the data set on Male Sprague-Dawley rat, the “MPP (moderate pain-producing potency)” value stood at 1.7 µg/mL and the “RPP (relative pain-producing potency)” value was found to be 94. Also, the Ki on VR1 [1] (setting [3]) is 17.4 nM. Further, in the data set on Male ICR mice, the ED50 was 0.161 µg/kg and the “Relative effect (fold stronger than capsaicin)” value was determined as 8.

Turning to `COc1cc(CNC(=S)NCC(COC(=O)C(C)(C)C)Cc2ccc(C(C)(C)C)cc2)ccc1O` (stereo not shown) [JYL-273, reference compound], in the data set on Male Sprague-Dawley rat, the “MPP (moderate pain-producing potency)” value stood at 23 µg/mL and the “RPP (relative pain-producing potency)” value was 7. The Ki at VR1 [1] (setting [3]) worked out at 6.35 nM. Also, the ED50 with Male ICR mice worked out at 0.107 µg/kg.

On to `COc1cc(COC(=S)NCc2ccc(C(C)(C)C)cc2)ccc1O` [Compound 147, N-(4-tert-Butylbenzyl)-O-(4-hydroxy-3-methoxybenzyl)thiocarbamate], for which the affinity on VR1 [1], expressed as Ki, was 1940 nM.

Consider `COc1cc(CC(=O)NCC(CCc2ccc(C)c(C)c2)COC(=O)C(C)(C)C)ccc1O` (stereo not shown) [Compound 34, N-[4-(3,4-Dimethylphenyl)-2-(pivaloyloxymethyl)butyl]-2-[4-hydroxy-3-methoxyphenyl]acetamide], for which the Ki on VR1 [1] worked out at 153 nM. In the data set on Male ICR mice, the ED50 amounted to 0.934 µg/kg and the “Relative effect (fold stronger than capsaicin)” value stood at 1.4. On VR1 [2], the 50% effective concentration (EC50) turned out to be 0.784 nM, the “fold stronger effect than JYL-273 (45Ca influx EC50)” value is reported as 4 fold, the “fold stronger effect than LJO-198 (45Ca influx EC50)” value is 16 fold and the “fold stronger effect than capsaicin (45Ca influx EC50)” value amounted to 57 fold.

With `COc1cc(COC(=S)NCC(COC(=O)C(C)(C)C)Cc2ccc(C)c(C)c2)ccc1O` (stereo not shown) [Compound 140, N-[2-(3,4-Dimethylbenzyl)-3-(pivaloyloxy)propyl]-O-(4-hydroxy-3-methoxybenzyl)thiocarbamate], the Ki on VR1 [1] worked out at 156 nM. On VR1 [2], this compound returned an EC50 of 2.4 nM.

For `COc1cc(CC(=O)NCC(CCc2ccc(C)c(C)c2)COC(=O)C(C)(C)C)ccc1OCCN` (stereo not shown) [Compound 38, N-[4-(3,4-Dimethylphenyl)-2-(pivaloyloxymethyl)butyl]-2-[4-(2-aminoethoxy)-3-methoxyphenyl]acetamide], in the data set with Male Sprague-Dawley rat, the “MPP (moderate pain-producing potency)” value is 29 µg/mL and the “RPP (relative pain-producing potency)” value was about 5.5. This compound displayed a Ki on VR1 [1] of 855 nM. Moreover, in the data set on Male ICR mice, the ED50 amounted to 0.076 µg/kg and the “Relative effect (fold stronger than capsaicin)” value turned out to be 18.
